{"source": "patent US12616204B2", "about": "“Use of cationic porphyrins as selective herbicide” (UNIVERSITE DE LIMOGES, priority 2021, dated 2026)", "key": {"[1]": {"test_system": "tomato seedlings (Solanum lycopersicum)", "details": "16-hour photoperiod, Guillaumot et al. 2016; cited from earlier work"}, "Barley (Hordeum sativum) [2]": {"test_system": "Barley (Hordeum sativum)", "experiment": "In vitro cultivation on Zn-TMPyP-rich medium, barley", "type": "in vivo", "details": "3.5 μM Zn-TMPyP-rich medium", "procedure": "(§1) The sterilization of the seeds is carried out according to the following protocol. Surface sterilization is first performed with 70% (v/v) ethanol for 2 minutes at ambient temperature. The ethanol is removed and the seeds are immersed in 20% (v/v) sodium hypochlorite for 15-20 minutes and then thoroughly rinsed with sterile water. The barley caryopses are left in the water for at least one hour before cultivation.\n(§2) The germination medium for all of the seeds is Gamborg's synthetic medium, also referred to as B5, (Duchefa Biochemie, Haarlem, the Netherlands), supplemented with 2% sucrose (w/v) and solidified with 0.8% agar (Difco, Dallas, USA). The pH is adjusted to 5.8 with 1 M sodium hydroxide before autoclaving. After autoclaving (120° C., 20 minutes, 1 bar) and cooling of the medium in Petri dishes and/or jars, porphyrin is added at the desired concentration. After sterilization, the seeds are deposited on the solidified B5 medium containing or not containing the porphyrin, under a laminar flow hood. The Petri dishes and jars are placed in culture chambers (16 h photoperiod, 22° C., photon flux density ˜100 μmol·m^−2·s^−1 generated by cool daylight lamps (OSRAM Lumilux 24W)). The jars are used for the transfer of the seedlings and allow them to grow more appropriately. […]"}, "[3]": {"test_system": "Grapevine (Vitis vinifera) cultivar: Sauvignon (clone 379)", "experiment": "In vitro cultivation on Zn-TMPyP-rich medium, grapevine explants", "type": "in vivo", "details": "3.5 μM Zn-TMPyP-rich medium, two months of cultivation", "procedure": "(§3) Explants are propagated in a sterile manner from 1-month old seedlings for potato and two-month old seedlings for grapevines. The potato explants are propagated on a Murashige and Skoog synthetic medium supplemented with 2% sucrose and myo-inositol ((100 mg/L), pH 5.8. The grapevine explants are cultivated on ½ Chee and Pool medium supplemented with 2% sucrose, pH 5.9. The media are solidified with 0.8% Sobigel. Both media are supplied by Duchefa Biochemie, Haarlem, the Netherlands. The media are autoclaved as described above for the B5 medium. The grapevine explants are placed in a culture chamber at 25° C. and those of potato at 23° C., the same photoperiod and light intensity as for the seed germinations."}, "Poppy (Papaver rhoeas) [4]": {"test_system": "Poppy (Papaver rhoeas)", "experiment": "Greenhouse foliar spraying test, poppy", "details": "foliar spraying 50 μM Zn-TMPyP", "method": "(§6) The various seeds are cultivated in a greenhouse in commercial compost (universal compost, Fertiligene). The seeds were sown in the greenhouse under controlled temperature and humidity conditions (the temperature varies between 15° C. and 30° C. depending on the season, and the relative humidity varies from 50 to 70%).\n(§7) Two spot treatments (about 10 sprays each) spaced 48 h apart were carried out one week after germination. The first treatment was carried out when the seedlings were in the cotyledon stage, the second when the seedlings were in the first-leaf stage.\n(§8) The seedlings were monitored every 48 h. The control medium was sprayed with water at the same frequency."}, "[5]": {"test_system": "Tobacco (Nicotiana benthamiana)", "experiment": "In vitro cultivation on Zn-TMPyP-rich medium, tobacco", "type": "in vivo", "details": "3.5 μM Zn-TMPyP-rich medium, one-and-a-half months of cultivation", "procedure": "as §1\n(§4) The germination medium for all of the seeds is Gamborg's synthetic medium, also referred to as B5, (Duchefa Biochemie, Haarlem, the Netherlands), supplemented with 2% sucrose (w/v) and solidified with 0.8% agar (Difco, Dallas, USA). The pH is adjusted to 5.8 with 1 M sodium hydroxide before autoclaving. After autoclaving (120° C., 20 minutes, 1 bar) and cooling of the medium in Petri dishes and/or jars, porphyrin is added at the desired concentration. After sterilization, the seeds are deposited on the solidified B5 medium containing or not containing the porphyrin, under a laminar flow hood. The Petri dishes and jars are placed in culture chambers (16 h photoperiod, 22° C., photon flux density ˜100 μmol·m^−2·s^−1 generated by cool daylight lamps (OSRAM Lumilux 24W)). The jars are used for the transfer of the seedlings and allow them to grow more appropriately."}, "fishing worms (maggots)": {"test_system": "fishing worms (maggots)", "experiment": "Non-toxicity to fishing worms (maggots), viability after spraying", "type": "in vivo", "details": "for toxicity to fishing worms (maggots): summary statement", "procedure": "The maggots were placed in Petri dishes under a photoperiod (16 h) or under dark conditions in a phytotron (24° C.) for 24 h. […] The percentage viability was determined after 24 h."}, "[6]": {"test_system": "Tomato Solanum lycopersicum var Marmande", "experiment": "Greenhouse foliar spraying test, tomato", "details": "foliar spraying 50 μM Zn-TMPyP, two treatments 48 h apart, after one month and two months", "method": "as §6, §7, §8"}, "[7]": {"test_system": "adventitious plants (goosefoot, proso millet, rye-grass, dock, black nightshade, dandelion, chickweed)", "experiment": "Example 4 greenhouse foliar spraying test, adventitious plants", "type": "in vivo", "details": "after 6 weeks", "procedure": "(§5) Additional tests in a greenhouse were carried out. […] The treatments started at the cotyledon stage. The harvesting was carried out 6 weeks after germination (and 10 weeks for barley)."}, "[8]": {"test_system": "Arabidopsis thaliana ws ecotype", "experiment": "In vitro cultivation on Zn-TMPyP-treated medium, Arabidopsis", "type": "in vivo", "details": "medium with Zn-TMPyP 3.5 μM, after 1 month", "procedure": "as §1, §4"}, "[9]": {"experiment": "Photostability/photodegradation test in water (Soret band, UV-visible spectrometry)", "details": "solution without surfactant, photoperiod 16 h light/8 h dark", "from_the_text": "Monitoring the intensity of the Soret band as a function of the irradiation time makes it possible to calculate the percentage of degraded porphyrins."}, "[10]": {"test_system": "Common nettle Urtica dioica", "experiment": "In vitro cultivation on Zn-TMPyP-treated medium, nettle", "type": "in vivo", "details": "medium with Zn-TMPyP 3.5 μM, after 18 days", "procedure": "as §1, §4"}, "[11]": {"test_system": "plants of interest (tomato, barley, wheat, spinach, turnip, corn, onion, sunflower)", "experiment": "Example 4 greenhouse foliar spraying test, plants of interest", "type": "in vivo", "details": "5 foliar sprayings 48 h apart, regardless of concentration (50, 75, 100 μM), after 6 weeks (10 for barley)", "procedure": "as §5"}, "[12]": {"test_system": "Spinach (Spinacia oleracea)", "experiment": "Example 4 greenhouse foliar spraying test, spinach", "type": "in vivo", "details": "5 foliar sprayings 48 h apart, 50, 75, 100 μM, after 6 weeks", "procedure": "as §5"}, "[13]": {"test_system": "Potato (Solanum tuberosum) cultivar: Coquine", "experiment": "In vitro cultivation on Zn-TMPyP-treated medium, potato explants", "type": "in vivo", "details": "treated medium (3.5 μM Zn-TMPyP) compared to control", "procedure": "as §3"}, "[14]": {"test_system": "Tomato Solanum lycopersicum var Marmande", "experiment": "In vitro cultivation on Zn-TMPyP-rich medium, tomato", "type": "in vivo", "details": "3.5 μM Zn-TMPyP-rich medium, after 22 days, compared with control", "procedure": "as §1, §2"}, "[15]": {"test_system": "antioxidant machinery (total thiols, catalase, guaiacol peroxidase) of tomato seedlings", "experiment": "Total thiols, catalase and guaiacol peroxidase in tomato seedlings cultivated in vitro", "type": "in vivo, Solanum lycopersicum", "details": "tomato seedlings cultivated in vitro on 3.5 μM Zn-TMPyP-rich medium, 1 month"}, "Poppy (Papaver rhoeas) [16]": {"test_system": "Poppy (Papaver rhoeas)", "experiment": "In vitro cultivation on Zn-TMPyP-treated medium, poppy", "type": "in vivo", "details": "3.5 μM Zn-TMPyP, after 6 weeks", "procedure": "as §1, §4"}, "[17]": {"test_system": "antioxidant enzymes and molecules (total thiols, catalase, guaiacol peroxidase) of tomato seedlings", "experiment": "Total thiols, catalase and guaiacol peroxidase in greenhouse tomato seedlings after foliar application", "details": "foliar application of 50 μM Zn-TMPyP, two months", "method": "Seedlings (roots and aerial parts separated before freezing) are ground in liquid nitrogen. The powder is transferred into an Eppendorf tube and weighed (between 200 and 100 mg per extraction). The extract is acidified with 0.2 N vortexed HCl and centrifuged (13 000 g 10 min 4° C.). 500 μL of the supernatant is neutralized with 400 μL of NaOH (0.2 N) and 50 μL of Na2HPO4. Then, 700 μL of 0.12 M Na2HPO4, 6 mM EDTA and 6 mM DTNB are added to 200 μL of the neutralized solution. After establishing a glutathione range, the total thiols contained in the samples are determined by UV-vis spectrometry at 412 nm and related to the fresh weight.\nSeedlings (roots and aerial parts separated before freezing) are ground in liquid nitrogen. […]\nCatalase activity is quantifiable by measuring the disappearance of H2O2 by disproportionation into H2O and O2. […] The kinetics of the disappearance of H2O2 are measured for 200 seconds every 20 seconds at 240 nm. The activity is calculated using the molar extinction coefficient of H2O2 which is 43.6 mM^−1·cm^−1.\nIts activity is measured by the oxidation of guaiacol in the presence of H2O2. […] The kinetics of the appearance of the oxidized guaiacol are measured for 120 seconds every 10 seconds at 436 nm. The activity is calculated using the molar extinction coefficient of H2O2 which is 25.5 mM^−1·cm^−1."}, "[18]": {"test_system": "Millet Echinochloa frumentacea", "experiment": "Greenhouse foliar spraying test, millet", "details": "foliar spraying 50 μM Zn-TMPyP, two treatments 48 h apart, after one month and two months", "method": "as §6, §7, §8"}, "Barley (Hordeum sativum) [19]": {"test_system": "Barley (Hordeum sativum)", "experiment": "Greenhouse foliar spraying test, barley", "details": "foliar spraying 50 μM Zn-TMPyP, two treatments 48 h apart, after one month and two months", "method": "as §6, §7, §8"}}, "note": "“Also recorded” adds a separate entry of the source."}
{"substance": "zinc tetra(N-methylpyridyl)porphyrin tetrachloride [Zn-TMPyP]", "values": [{"measurement": "tomato seedling growth in vitro", "setting": "[1]", "result": "significantly altered"}, {"measurement": "appearance of barley leaves", "setting": "Barley (Hordeum sativum) [2]", "result": "yellowing followed by wilting"}, {"measurement": "growth of the barley", "setting": "Barley (Hordeum sativum) [2]; after one month of cultivation", "result": "adversely impacted"}, {"measurement": "development of grapevine seedlings", "setting": "[3]", "result": "considerable inhibition"}, {"measurement": "time to first symptoms after the first treatment", "setting": "Poppy (Papaver rhoeas) [4]; adventitious plants (poppy, millet)", "result": 24, "unit": "h"}, {"measurement": "time until the poppy is destroyed after the first treatment", "setting": "Poppy (Papaver rhoeas) [4]; first 10 sprayings", "result": 48, "unit": "h"}, {"measurement": "herbicidal effect on poppy", "setting": "Poppy (Papaver rhoeas) [4]; two treatments 48 h apart, after one month and two months", "result": "completely dead; also recorded: completely destroyed"}, {"measurement": "development of tobacco seedlings", "setting": "[5]", "result": "considerable inhibition"}, {"measurement": "effect on viability of maggots (fishing worms)", "setting": "fishing worms (maggots); spraying of 50 μM Zn-TMPyP, 24 h, in the presence and in the absence of light", "result": "harmlessness"}, {"measurement": "toxicity to fishing worms (maggots)", "setting": "fishing worms (maggots)", "result": "non-toxicity"}, {"measurement": "growth of tomato (plant of interest)", "setting": "[6]", "result": "grow perfectly"}, {"measurement": "growth of the adventitious plants", "setting": "[7]; 5 foliar sprayings 48 h apart, C1=50, C2=75, C3=100 μM, dose-dependent or at a specific dose", "result": "drastically adversely impacts"}, {"measurement": "destruction of the adventitious plants", "setting": "[7]; 5 foliar sprayings, certain concentrations (of 50, 75, 100 μM)", "result": "completely destroy"}, {"measurement": "growth of Arabidopsis", "setting": "[8]", "result": "very significant inhibition"}, {"measurement": "days of photoperiod after which the solution disappears", "setting": "[9]", "result": 29, "unit": "days"}, {"measurement": "growth of nettle", "setting": "[10]", "result": "very significant inhibition"}, {"measurement": "growth of the plants of interest", "setting": "[11]", "result": "grow perfectly"}, {"measurement": "growth of spinach", "setting": "[12]", "result": "slightly affected"}, {"measurement": "growth of potato at the stem and roots", "setting": "[13]", "result": "slight growth retardation"}, {"measurement": "development of tomato", "setting": "[14]", "result": "significantly inhibited"}, {"measurement": "antioxidant machinery (total thiols, catalase, guaiacol peroxidase)", "setting": "[15]", "result": "significantly inhibited"}, {"measurement": "response of poppy seedlings", "setting": "Poppy (Papaver rhoeas) [16]", "result": "remarkable adverse impact and inhibition"}, {"measurement": "antioxidant enzymes and molecules", "setting": "[17]", "result": "remain constant"}, {"measurement": "thiols in the roots", "setting": "[17]", "result": "increase"}, {"measurement": "herbicidal effect on millet", "setting": "[18]", "result": "completely dead"}, {"measurement": "growth of barley (plant of interest)", "setting": "Barley (Hordeum sativum) [19]", "result": "grow perfectly"}]}
{"substance": "tetra(N-methylpyridyl)porphyrin tetrachloride [TMPyP]", "values": [{"measurement": "tomato seedling growth in vitro", "setting": "[1]", "result": "significantly altered"}, {"measurement": "toxicity to fishing worms (maggots)", "setting": "fishing worms (maggots)", "result": "non-toxicity"}]}
